Test results reported in ChEMBL document CHEMBL1811817, “Molecular docking studies and in vitro screening of new dihydropyridine derivatives as human MRP1 inhibitors” (Bioorg Med Chem, 2011).

The compounds below were run against T1, Multidrug resistance-associated protein 1 (Homo sapiens, UniProt P33527) (assay: Inhibition of vanadate-sensitive ATPase basal activity of human MRP1 expressed in Sf9 cells assessed as generation of inorganic phosphate at 10 uM by spectrophotometry in presence of glutathione). Details: sf9, 10 µM; call rule not given here.
T1 sequence (P33527 whole entry): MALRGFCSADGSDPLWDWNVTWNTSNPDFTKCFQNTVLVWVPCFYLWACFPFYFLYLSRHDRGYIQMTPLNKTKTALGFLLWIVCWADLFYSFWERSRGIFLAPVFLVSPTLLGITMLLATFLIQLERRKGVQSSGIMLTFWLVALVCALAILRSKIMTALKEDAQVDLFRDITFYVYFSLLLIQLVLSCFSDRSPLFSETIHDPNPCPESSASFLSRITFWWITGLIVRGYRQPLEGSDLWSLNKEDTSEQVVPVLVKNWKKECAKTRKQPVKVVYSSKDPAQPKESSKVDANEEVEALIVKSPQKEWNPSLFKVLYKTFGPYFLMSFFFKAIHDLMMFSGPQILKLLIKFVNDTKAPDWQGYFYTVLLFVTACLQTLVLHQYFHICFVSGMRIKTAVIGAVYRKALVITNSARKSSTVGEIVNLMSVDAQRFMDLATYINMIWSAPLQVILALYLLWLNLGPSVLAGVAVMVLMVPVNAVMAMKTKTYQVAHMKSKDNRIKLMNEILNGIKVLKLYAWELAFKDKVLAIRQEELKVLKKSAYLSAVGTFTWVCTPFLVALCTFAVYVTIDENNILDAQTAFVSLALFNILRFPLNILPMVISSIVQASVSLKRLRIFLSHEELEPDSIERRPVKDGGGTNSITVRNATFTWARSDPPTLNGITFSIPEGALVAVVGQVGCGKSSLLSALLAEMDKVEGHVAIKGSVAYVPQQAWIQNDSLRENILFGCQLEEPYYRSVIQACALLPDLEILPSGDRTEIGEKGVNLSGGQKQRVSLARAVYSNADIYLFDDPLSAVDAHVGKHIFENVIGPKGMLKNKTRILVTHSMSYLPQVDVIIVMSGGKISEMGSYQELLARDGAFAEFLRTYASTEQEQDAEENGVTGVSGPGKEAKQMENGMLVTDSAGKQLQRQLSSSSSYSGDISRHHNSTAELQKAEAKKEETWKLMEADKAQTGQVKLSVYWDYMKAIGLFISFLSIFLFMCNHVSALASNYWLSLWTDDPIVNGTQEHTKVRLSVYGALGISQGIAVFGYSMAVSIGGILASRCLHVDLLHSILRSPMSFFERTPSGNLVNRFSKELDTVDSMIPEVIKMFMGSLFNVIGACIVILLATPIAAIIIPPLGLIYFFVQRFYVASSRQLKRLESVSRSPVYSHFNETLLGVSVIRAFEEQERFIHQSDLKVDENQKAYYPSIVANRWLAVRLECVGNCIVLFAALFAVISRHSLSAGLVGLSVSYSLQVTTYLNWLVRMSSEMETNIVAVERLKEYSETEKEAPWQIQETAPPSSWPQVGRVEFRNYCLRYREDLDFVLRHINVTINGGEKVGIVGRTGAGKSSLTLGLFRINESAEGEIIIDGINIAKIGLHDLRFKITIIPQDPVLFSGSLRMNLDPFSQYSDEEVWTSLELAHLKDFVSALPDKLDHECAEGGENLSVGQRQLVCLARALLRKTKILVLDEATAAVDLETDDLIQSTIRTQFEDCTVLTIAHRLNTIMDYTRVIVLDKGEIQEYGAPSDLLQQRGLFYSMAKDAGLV
For `CC1=C(C(=O)Nc2ccccc2)C(c2ccco2)C(C(=O)Nc2ccccc2)=C(C)N1`, the “inhibition (INH)” value was “Active”.
With `CC1=C(C(=O)Nc2ccccn2)C(c2ccc[nH]2)C(C(=O)Nc2ccccn2)=C(C)N1` the “inhibition (INH)” value was “Active”.

What follows are compounds tested against T1, Multidrug resistance-associated protein 1 (assay: Inhibition of human MRP1 expressed in Spodoptera frugiperda Sf9 cells assessed as inhibition of NEM-GS-induced vanadate-sensitive ATPase activity measured by generation of inorganic phosphate by spectrophotometry in presence of glutathione). Details: not given.
With `CC1=C(C(=O)Nc2ccccc2)C(c2ccccn2)C(C(=O)Nc2ccccc2)=C(C)N1` the “inhibition (INH)” value was “Not Active”.
For `CC1=C(C(=O)Nc2ccccc2)C(c2cccs2)C(C(=O)Nc2ccccc2)=C(C)N1`, the “inhibition (INH)” value was “Not Active”.
In the case of `CC1=C(C(=O)Nc2ccccc2)C(c2ncc[nH]2)C(C(=O)Nc2ccccc2)=C(C)N1`, the “inhibition (INH)” value was “Not Active”.
With `CC1=C(C(=O)Nc2ccccc2)C(c2ccc[nH]2)C(C(=O)Nc2ccccc2)=C(C)N1` the “inhibition (INH)” value was “Not Active”.
`CC1=C(C(=O)Nc2ccccc2)C(c2ccc(Cl)cc2)C(C(=O)Nc2ccccc2)=C(C)N1` was tested, and the “inhibition (INH)” value was “Not Active”.
`CC1=C(C(=O)Nc2ccccn2)C(c2ccco2)C(C(=O)Nc2ccccn2)=C(C)N1` was tested, and the “inhibition (INH)” value was “Not Active”.
With `CC1=C(C(=O)Nc2ccccn2)C(c2ncc[nH]2)C(C(=O)Nc2ccccn2)=C(C)N1` the “inhibition (INH)” value was “Not Active”.
In the case of `CC1=C(C(=O)Nc2ccc(C)cc2)C(c2ncc[nH]2)C(C(=O)Nc2ccc(C)cc2)=C(C)N1`, the “inhibition (INH)” value was “Not Active”.

These compounds were tested against T2, MRP1 (Homo sapiens, UniProt P33527) (assay: Inhibition of human MRP1 expressed in Spodoptera frugiperda Sf9 cells assessed as decrease in NEM-GS induced vanadate-sensitive ATPase activity measured by generation of inorganic phosphate at 30 uM by spectrophotometry in presence of glutathione). Details: Spodoptera frugiperda Sf9 cells expressing human MRP1, probe NEM-GS.
T2 sequence (P33527 whole entry): as above
For `CC1=C(C(=O)Nc2ccccc2)C(c2ccco2)C(C(=O)Nc2ccccc2)=C(C)N1`, the inhibition at 30 µM was 52.8%.
`CC1=C(C(=O)Nc2ccccn2)C(c2ccc[nH]2)C(C(=O)Nc2ccccn2)=C(C)N1` was tested, and the inhibition at 30 µM was 69.8%.

The compounds below were run against T2, MRP1 (assay: Inhibition of human MRP1 expressed in Spodoptera frugiperda Sf9 cells assessed as decrease in NEM-GS induced vanadate-sensitive ATPase activity measured by generation of inorganic phosphate at 100 uM by spectrophotometry in presence of glutathione). Details: Spodoptera frugiperda Sf9 cells expressing human MRP1, probe NEM-GS.
In the case of `CC1=C(C(=O)Nc2ccccn2)C(c2ccc[nH]2)C(C(=O)Nc2ccccn2)=C(C)N1`, the inhibition at 100 µM was 78%.
